In ChEMBL document CHEMBL4765295, “Synthesis, pharmacological profile and 2D-QSAR studies of curcumin-amino acid conjugates as potential drug candidates” (Eur J Med Chem, 2020):
pIC50: −log10 of the molar value. Where “and” joins values, the source holds several entries; their conditions need not be identical. Identical values can stand only once. One block for each compound: values may come before it.

How the values were obtained:
Pseudomonas aeruginosa = assay: Antibacterial activity against Pseudomonas aeruginosa ATCC 27853 incubated for 18 hrs by agar dilution assay; type: functional
Splenocyte [1] = assay: Immunomodulatory activity in Swiss albino mouse splenocytes assessed as cell viability at 10 uM by measuring inhibition of stimulation index incubated for 72 hrs in presence of mitogenic stimulus phytohaemagglutinin by MTT assay relative to indomethacin; type: functional; settings: read-out: Activity
Peritoneal macrophage [2] = assay: Antiinflammatory activity in […] mouse Peritoneal macrophages assessed as reduction in LPS-induced NO production by measuring reduction in stimulation index at 10 uM preincubated for 1 hr followed by LPS stimulation measured after 24 hrs by Griess method (reference value: 27.31 +/- 2.56 uM); type: functional; settings: time 25 hrs
Rattus norvegicus [3] = assay: Antiinflammatory activity in Wistar rat model of carrageenan-induced paw edema assessed as reduction in thickness of paw edema at 10 mg/kg, ip pretreated for 1 hr followed by carrageenan challenge and measured after 4 hrs (reference value: 1.40 +/-0.10 mm); type: functional; settings: time 5 hrs
Rattus norvegicus [4] = assay: Anti-inflammatory activity in Wistar rat assessed as inhibition of carrageenan-induced paw edema at 10 mg/kg, ip pretreated for 1 hr followed by carrageenan challenge and measured after 1 hr relative to control (reference value: 0.00 +/-0.02 %); type: functional; settings: time 2 hrs
Rattus norvegicus [5] = assay: Anti-inflammatory activity in Wistar rat assessed as inhibition of carrageenan-induced paw edema at 10 mg/kg, ip pretreated for 1 hr followed by carrageenan challenge and measured after 24 hr relative to control (reference value: 0.00 +/-0.3 %); type: functional; settings: time 25 hrs
Staphylococcus aureus = assay: Antibacterial activity against Staphylococcus aureus ATCC 25923 incubated for 18 hrs by agar dilution method; type: functional
Rattus norvegicus [6] = assay: Antiinflammatory activity in Wistar rat model of carrageenan-induced paw edema assessed as reduction in thickness of paw edema at 10 mg/kg, ip pretreated for 1 hr followed by carrageenan challenge and measured after 1 hr (reference value: 2.41 +/-0.05 mm); type: functional; settings: time 1 hr after carrageenan
Rattus norvegicus [7] = assay: Anti-inflammatory activity in Wistar rat assessed as inhibition of carrageenan-induced paw edema at 10 mg/kg, ip pretreated for 1 hr followed by carrageenan challenge and measured after 4 hr relative to control (reference value: 0.00 +/-0.4 %); type: functional; settings: time 5 hrs
Salmonella typhimurium = assay: Antibacterial activity against Salmonella typhimurium ATCC 19430 incubated for 18 hrs by agar dilution assay; type: functional, Salmonella enterica subsp. enterica serovar Typhimurium; settings: Salmonella enterica
Peritoneal macrophage [8] = assay: Antiinflammatory activity in […] mouse Peritoneal macrophages assessed as inhibition of LPS-induced NO production at 10 uM preincubated for 1 hr followed by LPS stimulation measured after 24 hrs by Griess method relative to control (reference value: 0.0 %); type: functional; set-up: scale not given: the % may be the effect or the level left; settings: time 25 hrs
Rattus norvegicus [9] = assay: Antiinflammatory activity in Wistar rat model of carrageenan-induced paw edema assessed as reduction in thickness of paw edema at 10 mg/kg, ip pretreated for 1 hr followed by carrageenan challenge and measured after 24 hrs (reference value: 0.83 +/-0.08 mm); type: functional; settings: time 25 hrs
Rattus norvegicus [10] = assay: Antiinflammatory activity in Wistar rat model of carrageenan-induced paw edema assessed as reduction in thickness of paw edema at 10 mg/kg, ip pretreated for 1 hr followed by carrageenan challenge and measured after 2 hrs (reference value: 2.06 +/-0.09 mm); type: functional; settings: time 3 hrs
Splenocyte [11] = assay: Immunomodulatory activity in Swiss albino mouse splenocytes assessed as cell viability at 10 uM by measuring stimulation index incubated for 72 hrs in presence of mitogenic stimulus phytohaemagglutinin by MTT assay (reference value: 1.00 +/- 0.24); type: functional
Streptococcus pyogenes = assay: Antibacterial activity against Streptococcus pyogenes ATCC 19615 incubated for 18 hrs by agar dilution method; type: functional
Rattus norvegicus [12] = assay: Anti-inflammatory activity in Wistar rat assessed as inhibition of carrageenan-induced paw edema at 10 mg/kg, ip pretreated for 1 hr followed by carrageenan challenge and measured after 2 hr relative to control (reference value: 0.00 +/-0.03 %); type: functional; settings: time 3 hrs
MCF7 = assay: Antiproliferative activity against human MCF7 cells assessed as inhibition of cell growth after 72 hrs by MTT assay; type: functional, cell-based; settings: MCF7, 72 h
Rattus norvegicus [13] = assay: Anti-inflammatory activity in Wistar rat assessed as inhibition of carrageenan-induced paw edema at 10 mg/kg, ip pretreated for 1 hr followed by carrageenan challenge and measured after 4 hr relative to indomethacin; type: functional; settings: time 5 hrs
Candida albicans = assay: Antifungal activity against Candida albicans incubated for 18 to 24 hrs by CLSI method; type: functional; settings: time 18-24 hrs
Rattus norvegicus [14] = assay: Antiinflammatory activity in Wistar rat model of carrageenan-induced paw edema assessed as reduction in thickness of paw edema at 10 mg/kg, ip pretreated for 1 hr followed by carrageenan challenge and measured after 3 hrs (reference value: 1.79 +/-0.07 mm); type: functional; settings: time 4 hrs
A549 = assay: Antiproliferative activity against human A549 cells assessed as inhibition of cell growth after 72 hrs by MTT assay; type: functional, cell-based; settings: A549, 72 h
Rattus norvegicus [15] = assay: Anti-inflammatory activity in Wistar rat assessed as inhibition of carrageenan-induced paw edema at 10 mg/kg, ip pretreated for 1 hr followed by carrageenan challenge and measured after 3 hr relative to control (reference value: 0.00 +/-0.1 %); type: functional; settings: time 4 hrs
PC-3 = assay: Antiproliferative activity against human PC3 cells assessed as inhibition of cell growth after 72 hrs by MTT assay; type: functional, cell-based; settings: PC-3, 72 h

- MIC (Pseudomonas aeruginosa): 0.25 µg/mL and 0.428 µM
- MIC (Staphylococcus aureus): 0.5 µg/mL and 0.857 µM
- MIC (Salmonella typhimurium): 0.5 µg/mL and 0.857 µM
- MIC (Streptococcus pyogenes): 0.5 µg/mL and 0.857 µM
- pIC50 (MCF7): 4.97
- MIC (Candida albicans): 0.5 µg/mL and 0.857 µM
- pIC50 (A549): 4.66
- pIC50 (PC-3): 4.50
Structure (SMILES): COc1cc(/C=C/C(=O)/C=C(O)/C=C/c2ccc(OC(=O)[C@H](C)N)c(OC)c2)ccc1OC(=O)[C@H](C)N.Cl.Cl
- viability at 10 µM (Splenocyte [1]): 106%
- Activity (Peritoneal macrophage [2]): 14.68 µM
- Activity (Rattus norvegicus [3]): 0.47 mm
- inhibition in vivo at 10 mg/kg (Rattus norvegicus [4]): 37%
- inhibition in vivo at 10 mg/kg (Rattus norvegicus [5]): 16%
- Activity (Rattus norvegicus [6]): 1.51 mm
- inhibition in vivo at 10 mg/kg (Rattus norvegicus [7]): 66%
- Activity (Peritoneal macrophage [8]): 46.24%
- Activity (Rattus norvegicus [9]): 0.7 mm
- Activity (Rattus norvegicus [10]): 1.19 mm
- Activity_index (Splenocyte [11]): 1.14
- inhibition in vivo at 10 mg/kg (Rattus norvegicus [12]): 42%
- inhibition in vivo at 10 mg/kg (Rattus norvegicus [13]): 76%
- Activity (Rattus norvegicus [14]): 0.85 mm
- inhibition in vivo at 10 mg/kg (Rattus norvegicus [15]): 53%

- pIC50 (PC-3): 4.42
Structure (SMILES): COc1cccc2c1C(=O)c1c(O)c3c(c(O)c1C2=O)C[C@@](O)(C(=O)CO)C[C@@H]3O[C@H]1C[C@H](N)[C@H](O)[C@H](C)O1 [DOXORUBICIN]
